Data published in article PMC6522510 (Nature Communications, 2019).
Where two headings read alike, the source gives them in different places. Blank lines part the entries; values can stand above or below the compound they belong to.

Experiments:
MOLM-13 [1] = test: Secondary dose-response HTS, Cell Titer Glo; type: cell-based, human; details: secondary high-throughput screen, MOLM-13; for EC50: read-out: average effective concentration, MOLM-13
MV4-11 [2] = test: Secondary dose-response HTS, Cell Titer Glo; type: cell-based, human; details: secondary high-throughput screen, MV4-11; for EC50: read-out: average effective concentration, MV4-11
CHRF288-11 [3] = test: Secondary dose-response HTS, Cell Titer Glo; type: cell-based, human; details: secondary high-throughput screen, CHRF288-11; for EC50: read-out: average effective concentration, CHRF288-11
CMK [4] = test: Secondary dose-response HTS, Cell Titer Glo; type: cell-based, human; details: secondary high-throughput screen, CMK; for EC50: read-out: average effective concentration, CMK
CMS [5] = test: Secondary dose-response HTS, Cell Titer Glo; type: cell-based, human; details: secondary high-throughput screen, CMS; for EC50: read-out: average effective concentration, CMS
ML2 = test: Secondary dose-response HTS, Cell Titer Glo; type: cell-based, human; details: secondary high-throughput screen, ML-2; for EC50: read-out: average effective concentration, ML-2
U937 [6] = test: Secondary dose-response HTS, Cell Titer Glo; type: cell-based, human; details: secondary high-throughput screen, U937; for EC50: read-out: average effective concentration, U937
MOLM-13 [7] = test: cells; design: species or system AML cell lines (8); Secondary HTS, 10-point dose-response in triplicate, Cell Titer Glo viability, four-parameter fit EC50; details: Homo sapiens, MOLM-13, 72 h, read-out: MOLM-13
MV4-11 [8] = test: cells; design: species or system AML cell lines (8); Secondary HTS, 10-point dose-response in triplicate, Cell Titer Glo viability, four-parameter fit EC50; details: Homo sapiens, MV4-11, 72 h, read-out: MV4-11
CMK [9] = test: cells; design: species or system AML cell lines (8); Secondary HTS, 10-point dose-response in triplicate, Cell Titer Glo viability, four-parameter fit EC50; details: Homo sapiens, CMK, 72 h, read-out: CMK
CHRF288-11 [10] = test: cells; design: species or system AML cell lines (8); Secondary HTS, 10-point dose-response in triplicate, Cell Titer Glo viability, four-parameter fit EC50; details: 72 h, read-out: CHRF288-11
CMS [11] = test: cells; design: species or system AML cell lines (8); Secondary HTS, 10-point dose-response in triplicate, Cell Titer Glo viability, four-parameter fit EC50; details: 72 h, read-out: CMS
M07e = test: cells; design: species or system AML cell lines (8); Secondary HTS, 10-point dose-response in triplicate, Cell Titer Glo viability, four-parameter fit EC50; details: M-07e, 72 h, read-out: M07e
U937 [12] = test: cells; design: species or system AML cell lines (8); Secondary HTS, 10-point dose-response in triplicate, Cell Titer Glo viability, four-parameter fit EC50; details: Homo sapiens, U-937, 72 h, read-out: U937

Compound: C[C@H](Oc1cc(-c2cnn(C3CCNCC3)c2)cnc1N)c1c(Cl)ccc(F)c1Cl [(S)-CRIZOTINIB]
- EC50 (MOLM-13 [1]): 3.9 µM
- EC50 (MV4-11 [2]): 3.9 µM
- EC50 (CHRF288-11 [3]): 7.8 µM
- EC50 (CMK [4]): 4.2 µM
- EC50 (CMS [5]): 8.3 µM
- EC50 (ML2): 5 µM
- average effective concentration, U937 (U937 [6]): Inactive

Compound: Cc1noc(-c2ccc(-c3ccc(CC(=O)O)cc3)cc2)c1NC(=O)O[C@H](C)c1ccccc1 [AM-095]
- average effective concentration, MV4-11 (MV4-11 [2]): Inactive
- average effective concentration, CHRF288-11 (CHRF288-11 [3]): Inactive
- average effective concentration, CMK (CMK [4]): Inactive
- average effective concentration, CMS (CMS [5]): Inactive
- average effective concentration, ML-2 (ML2): Inactive
- average effective concentration, U937 (U937 [6]): Inactive

Compound: O=C(O)CC([S-])C(=O)O.[Au+] (stereo not shown) [AUROTHIOMALATE]
- average effective concentration, MOLM-13 (MOLM-13 [1]): Inactive
- average effective concentration, MV4-11 (MV4-11 [2]): Inactive
- average effective concentration, CHRF288-11 (CHRF288-11 [3]): Inactive
- average effective concentration, CMK (CMK [4]): Inactive
- average effective concentration, CMS (CMS [5]): Inactive
- average effective concentration, U937 (U937 [6]): Inactive

Compound: Nc1nccc2c1ncn2C1C=C(CO)C(O)C1O (stereo not shown) [Compound 3-DEAZANEPLANOCIN]
- average effective concentration, MV4-11 (MV4-11 [2]): Inactive
- average effective concentration, CMS (CMS [5]): Inactive
- average effective concentration, ML-2 (ML2): Inactive
- average effective concentration, U937 (U937 [6]): Inactive

Compound: Nc1nc(=O)n([C@H]2C[C@H](O)[C@@H](CO)O2)cc1F [Compound 5-FLUORODEOXYCYTIDINE]
- average effective concentration, MV4-11 (MV4-11 [2]): Inactive
- average effective concentration, CMS (CMS [5]): Inactive
- average effective concentration, U937 (U937 [6]): Inactive

Compound: C=C1C(=O)O[C@@H]2C[C@@]3(C)CCCC(=C)[C@@H]3C[C@H]12 [ISOHELENIN]
- EC50 (MOLM-13 [1]): 5.9 µM
- average effective concentration, MV4-11 (MV4-11 [2]): Inactive
- EC50 (CHRF288-11 [3]): 6.7 µM
- EC50 (CMK [4]): 5.2 µM
- EC50 (CMS [5]): 5.4 µM
- EC50 (ML2): 6.6 µM
- EC50 (U937 [6]): 8.2 µM

Compound: Cc1ccc(C(=O)Nc2ccc(Oc3cc4cnn(C)c4cc3-c3cn[nH]c3)c(F)c2)c(=O)n1-c1ccc(F)cc1 [LY2801653]
- average effective concentration, MV4-11 (MV4-11 [2]): Inactive
- average effective concentration, CHRF288-11 (CHRF288-11 [3]): Inactive
- average effective concentration, CMK (CMK [4]): Inactive
- average effective concentration, CMS (CMS [5]): Inactive
- average effective concentration, ML-2 (ML2): Inactive
- average effective concentration, U937 (U937 [6]): Inactive

The next lines start with results.

- EC50 (MOLM-13 [7]): > 10 µM
- EC50 (MV4-11 [8]): > 10 µM
Compound: CON(C)C(=O)N1N=C(c2cc(F)ccc2F)S[C@@]1(CCCN)c1ccccc1 [ARRY-520]
- EC50 (CMK [9]): > 10 µM

- EC50 (MV4-11 [2]; Homo sapiens): 0.001 µM
- EC50 (MOLM-13 [7]): > 10 µM
- EC50 (U937 [12]): > 10 µM
Compound: CN[C@@H](C)C(=O)N[C@H]1CN(C(=O)CC(C)C)CC[C@H]2CC[C@@H](C(=O)NC(c3ccccc3)c3ccccc3)N2C1=O [AT-406]
- EC50 (ML2; Homo sapiens): 6.6 µM
- EC50 (CHRF288-11 [10]): > 10 µM
- EC50 (CMK [9]): > 10 µM
- EC50 (CMS [11]): > 10 µM
- EC50 (M07e): > 10 µM

- EC50 (MOLM-13 [7]): > 10 µM
- EC50 (MV4-11 [8]): > 10 µM
- EC50 (U937 [12]): > 10 µM
Compound: Cc1nc(Nc2ncc(C(=O)Nc3c(C)cccc3Cl)s2)cc(N2CCN(CCO)CC2)n1 [DASATINIB]
- EC50 (CHRF288-11 [3]; Homo sapiens, HTS): 8.4 µM
- EC50 (ML2; Homo sapiens): > 10 µM
- EC50 (CMK [9]): > 10 µM
- EC50 (CMS [11]): > 10 µM
- EC50 (M07e): > 10 µM

- EC50 (MOLM-13 [1]; Homo sapiens): 0.8 µM
- EC50 (MV4-11 [8]): > 10 µM
- EC50 (U937 [12]): > 10 µM
Compound: O=c1oc2c(O)c(O)cc3c(=O)oc4c(O)c(O)cc1c4c23 [ELLAGIC ACID]
- EC50 (ML2; Homo sapiens): 0.51 µM
- EC50 (CHRF288-11 [10]): > 10 µM
- EC50 (CMK [9]): > 10 µM
- EC50 (CMS [11]): > 10 µM
- EC50 (M07e): > 10 µM

- EC50 (U937 [6]; Homo sapiens, U-937): 2.7 µM
Compound: CC1CS(=O)(=O)CCN1/N=C/c1ccc([N+](=O)[O-])o1 (stereo not shown) [NIFURTIMOX]
- EC50 (CMK [4]; Homo sapiens): 2.3 µM
- EC50 (CMS [5]; Homo sapiens, HTS): 5 µM
- EC50 (ML2; Homo sapiens): 8.5 µM
